Reference: patent publication US9260731B2 (RELIANCE INDUSTRIES LIMITED, priority 2012, dated 2016)
Where two headings read alike, the source gives them in different places.

Key:
[1] = system: wild type C. acetobutylicum; assay: Rhodamine 6G accumulation on AT agar, wild type; format: cell-based, Clostridium acetobutylicum; details: 100 μg/ml in AT agar, 24 h, 37° C., anaerobic
Method: (§1) Cells of overnight culture of wild type and solvent-tolerant mutant C. acetobutylicum MTCC 5587 were spotted on AT agar with or without rhodamine 6G (100 μg/ml) and incubated at 37° C. in anaerobic chamber for 24 h. Accumulation of rhodamine 6G was monitored under UV light (Lazaroaie, 2009).

[2] = system: solvent-tolerant mutant C. acetobutylicum MTCC 5587; assay: Rhodamine 6G accumulation on AT agar, solvent-tolerant mutant; format: cell-based, Clostridium acetobutylicum; details: 100 μg/ml in AT agar, 24 h, 37° C., anaerobic
Method: as §1

[3] = system: C. acetobutylicum ATCC 4259 (wild type strain)
From the text: (§2) The tolerance and growth profile of the mutant was monitored with respect to time.

[4] = system: C. acetobutylicum MTCC 5587 (mutant strain B90)
Method: Chemical mutagenesis was carried out using MNNG (1-methyl-3-nitro-1-nitrosoguanidine). Alternate thioglycolate (AT) media was inoculated with C. acetobutylicum ATCC 4259 from the stab culture. After 12 h growth at 37° C., the culture was harvested and centrifuged. The cell pellet was washed with 2 ml citrate buffer (pH 5.8) and 100 μl of MNNG (stock solution 100 mg/ml prepared in sterilized distilled water) was added to the cells, incubated at 30° C. for 70 min. The mutagenised cell mass was centrifuged and the supernatant discarded appropriately in biohazard containers. The cells were washed twice with AT broth and resuspended in 1 ml AT broth.
as §2

Molecule | accumulation of rhodamine 6G (colony colour under UV light) [1] | accumulation of rhodamine 6G intracellularly (colony colour under UV light) [2] | butanol tolerated in the medium, beyond which there was cessation of growth [3] | growth in presence of butanol ([4]; 3.8% butanol) | growth in presence of butanol ([4]; 4% butanol) | growth in presence of butanol ([4]; at the highest tolerated levels of butanol (up to […] v/v)) | butanol tolerated in the AT medium ([4]; mutant strain, AT medium)
CCN=c1cc2oc3cc(NCC)c(C)cc3c(-c3ccccc3C(=O)OCC)c-2cc1C.Cl [rhodamine 6G] | comparatively lower dye accumulation | high accumulation | – | – | – | – | –
n-butanol | – | – | up to 1.5% | no growth | no growth | extremely slow and feeble | up to 3.5 % (v/v)
